Patent publication US10689392B2, “Anti-cancer compounds targeting ral GTPases and methods of using the same” (The Regents of the University of Colorado, a body corporate, priority 2011, dated 2020)
Like-named read-outs stand apart in the source and are kept apart here.

Columns and labels:
[1] = tested on: MiaPaCa2 pancreatic cell line; details: cited from earlier work
[2] = Pharmacokinetics in mice after intraperitoneal or oral administration; assay type: in vivo; details: mouse, blood; for half-life: read-out: t½ (converted)
Procedure: The pharmacokinetics of certain Ral-GTPase inhibiting compounds of the invention were evaluated in mice. Following intraperitoneal injection or oral administration, blood samples were collected over several hours and drug concentrations were evaluated by capillary coupled with Time of Flight (TOF) spectrometry.

[3] = tested on: bladder cancer cell lines CRL2169, J82, KU7, MGHU4, LULU2, UMUC3; assay: Combination testing with MEK inhibitor AZD6244 in bladder cancer cell lines; assay type: cell-based, human; details: in conjunction with MEK inhibitor AZD6244, bladder cancer cell lines
[4] = tested on: lung cancer cell lines A549, H2009, H358, H460, SW1573; assay: Combination testing with MEK inhibitor AZD6244 in lung cancer cell lines; assay type: cell-based, human; details: in conjunction with MEK inhibitor AZD6244, lung cancer cell lines
[5] = target: T1, RalA (Homo sapiens, UniProt P11233); assay: RalA activity in H2122 xenograft tumors, RalBP1 pull-down; assay type: in vivo, mice; details: single IP dose 50 mg/Kg, tumors collected 2 h (RBC10) or 3 h (RBC8) after injection, FIG. 12A
T1 construct: Xenograft tumors were collected 2 h (RBC10) or 3 h (RBC8) after injection; from tissue; host or cells: H2122 human lung cancer xenograft tumours grown subcutaneously in female nude mice
T1 sequence (P11233 1-206): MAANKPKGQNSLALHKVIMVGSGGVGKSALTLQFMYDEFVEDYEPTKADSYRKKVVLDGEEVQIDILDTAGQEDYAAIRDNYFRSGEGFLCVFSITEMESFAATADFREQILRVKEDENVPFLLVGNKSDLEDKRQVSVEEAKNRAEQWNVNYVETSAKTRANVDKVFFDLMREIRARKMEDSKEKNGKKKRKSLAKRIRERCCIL
Procedure: (§1) Human lung cancer cell line H2122 was inoculated subcutaneously into female nude mice and allowed to grow until tumors reached an average size of 200 mm^3. Mice were given a single IP dose of 50 mg/Kg RBC8, RBC10, or DMSO control. Xenograft tumors were collected 2 h (RBC10) or 3 h (RBC8) after injection. RalA and RalB activity in tumors were measured by pull-down assay using RalBP1 agarose beads and normalized to total protein.

[6] = target: T2, RalB (Homo sapiens, UniProt P11234); assay: RalB activity in H2122 xenograft tumors, RalBP1 pull-down; assay type: in vivo, mice; details: single IP dose 50 mg/Kg, tumors collected 2 h (RBC10) or 3 h (RBC8) after injection, FIG. 12B
T2 construct: Xenograft tumors were collected 2 h (RBC10) or 3 h (RBC8) after injection; from tissue; host or cells: H2122 human lung cancer xenograft tumours grown subcutaneously in female nude mice
T2 sequence (P11234 1-206): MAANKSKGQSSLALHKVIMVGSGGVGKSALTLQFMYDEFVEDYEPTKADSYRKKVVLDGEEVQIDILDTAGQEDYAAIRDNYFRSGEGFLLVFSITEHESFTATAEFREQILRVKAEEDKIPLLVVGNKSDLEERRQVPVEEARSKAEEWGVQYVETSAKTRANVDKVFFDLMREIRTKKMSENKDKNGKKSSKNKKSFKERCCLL
Procedure: as §1

AUC(0-inf) ([2]; intraperitoneal (IP)) [ng·h/mL]	AUC(0-t) ([2]; intraperitoneal (IP)) [ng·h/mL]	Cmax ([2]; intraperitoneal (IP)) [µM]	Tmax ([2]; intraperitoneal (IP)) [h]	half-life ([2]; intraperitoneal (IP)) [h]	AUC(0-inf) ([2]; oral (PO)) [ng·h/mL]	AUC(0-t) ([2]; oral (PO)) [ng·h/mL]	Cmax ([2]; oral (PO)) [µM]	Tmax ([2]; oral (PO)) [h]	half-life ([2]; oral (PO)) [h]	RalA activity in tumors [5]	RalB activity in tumors [6]	SMILES	in vitro growth and survival [1]	efficacy of the combination with AZD6244 [3]	efficacy of the combination with AZD6244 [4]
–	–	–	–	–	–	–	–	–	–	–	–	COC(=O)[C@H](CC(C)C)NC(=O)N1CCN(Cc2nc[nH]c2C)C(=O)[C@@H]1Cc1ccccc1 [GGTI-2417]	inhibit the in vitro growth and survival	–	–
30500	30300	23.4	1	3.7	5220	4750	2.3	1	1.9	inhibition of RalA	inhibition of RalB	CCCCC(=O)N1c2ccccc2NC2=C(C(=O)CCC2)C1c1ccccc1Cl (stereo not drawn) [RBC10, 11-(2-chlorophenyl)-10-pentanoyl-2,3,4,5,10,11-hexahydro-1H-dibenzo[b,e][1,4]diazepin-1-one]	–	synergistic efficacy	synergistic efficacy
